Source: paper PMC4490784, “Compensatory induction of MYC expression by sustained CDK9 inhibition via a BRD4-dependent mechanism” (eLife, 2015)

How the values were obtained:
[1] = target: JAK1(JH2domain-pseudokinase) (Homo sapiens, UniProt P23458); assay: biochemical binding or enzymatic assay; set-up: JAK1(JH2domain-pseudokinase); details: Novartis
Procedure: (§1) Finally, the selectivity profile of i-CDK9 toward other non-CDK kinases was also assessed using the KINOMEscan platform. […] Except for CLK4, for which no suitable assay was available, the rest of the kinases plus a selected group of others were re-examined for the concentration-dependent effect of i-CDK9 in either functional kinase assays or binding assays. […] Indeed, it has recently been reported that DYRK1A acts as a Pol II CTD Kinase at its target gene promoters ([Di Vona et al., 2015]).

CDK9-CycT1 = CDK9-CycT1 (Homo sapiens, UniProt P50750); assay: In vitro kinase reaction with baculovirus-produced recombinant kinase (SignalChem); assay type: biochemical; set-up: purchased SignalChem; host or cells: baculovirus-produced; details: 80 nM i-CDK9
CDK9-CycT1, sequence (P50750 whole entry): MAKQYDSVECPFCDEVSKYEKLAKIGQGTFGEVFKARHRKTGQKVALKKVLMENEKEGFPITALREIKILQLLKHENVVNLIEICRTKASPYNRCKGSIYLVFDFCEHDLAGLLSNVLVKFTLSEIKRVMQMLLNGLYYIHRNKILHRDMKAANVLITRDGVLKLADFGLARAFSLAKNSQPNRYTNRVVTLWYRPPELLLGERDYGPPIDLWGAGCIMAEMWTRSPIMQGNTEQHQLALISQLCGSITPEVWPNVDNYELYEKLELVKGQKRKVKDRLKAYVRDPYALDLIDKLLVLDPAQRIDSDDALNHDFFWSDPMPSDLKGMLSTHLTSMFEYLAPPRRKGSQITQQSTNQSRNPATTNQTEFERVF
CDK9-CycT1, sequence (O60563 whole entry partner): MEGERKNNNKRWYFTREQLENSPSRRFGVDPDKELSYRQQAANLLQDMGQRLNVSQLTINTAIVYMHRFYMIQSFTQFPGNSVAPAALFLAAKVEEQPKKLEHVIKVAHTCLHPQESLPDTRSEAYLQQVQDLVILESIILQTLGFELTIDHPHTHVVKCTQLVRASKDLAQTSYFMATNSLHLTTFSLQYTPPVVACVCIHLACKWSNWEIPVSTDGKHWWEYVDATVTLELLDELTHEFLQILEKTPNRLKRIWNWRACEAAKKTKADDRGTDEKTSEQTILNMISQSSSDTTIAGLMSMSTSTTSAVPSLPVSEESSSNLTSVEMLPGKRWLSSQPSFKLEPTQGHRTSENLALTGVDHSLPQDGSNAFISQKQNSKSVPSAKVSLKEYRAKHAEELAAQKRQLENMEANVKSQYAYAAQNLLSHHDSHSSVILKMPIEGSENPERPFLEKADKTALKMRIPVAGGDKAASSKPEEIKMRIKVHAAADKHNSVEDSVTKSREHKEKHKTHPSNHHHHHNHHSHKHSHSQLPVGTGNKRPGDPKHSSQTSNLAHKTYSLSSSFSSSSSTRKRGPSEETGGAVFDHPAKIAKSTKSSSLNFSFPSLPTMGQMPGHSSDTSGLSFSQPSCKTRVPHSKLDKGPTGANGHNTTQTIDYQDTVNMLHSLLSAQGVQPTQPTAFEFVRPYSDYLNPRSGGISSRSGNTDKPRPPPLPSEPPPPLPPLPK

HeLa cells = assay: Immunoblotting of MCL-1 and PARP in HeLa cell lysates; assay type: cell-based, human; details: 8 hr
Procedure: Figure 1. i-CDK9 is a potent and selective CDK9 inhibitor that elicits cellular responses indicative of P-TEFb inhibition. (A and B) Structures and selectivity profiles of i-CDK9 (A) and falvopiridol (B). […] (C) In vitro kinase reactions containing affinity-purified CDK9-F-CycT or CDK12-F-CycK and GST-CTD as a substrate were conducted in the presence of the indicated concentrations of i-CDK9. pSer2 and the Flag-tagged kinase in each reaction were detected by Western blotting with anti-pSer2 and anti-Flag antibodies, respectively. (D) HeLa cells were treated for 8 hr with DMSO or the indicated concentrations of i-CDK9. Total cell lysates were examined by immunoblotting for the proteins labeled on the left. DOI: http://dx.doi.org/10.7554/eLife.06535.003 Figure 1—source data 1. Selectivity profile of i-CDK9. DOI: http://dx.doi.org/10.7554/eLife.06535.004 Figure 1—figure supplement 1. Recombinant CDK12-CycK is less sensitive to inhibition by i-CDK9.
(§2) Inhibition of phosphorylation of both Pol II CTD and SPT5 is expected to block transcriptional elongation, which will effectively decrease the production of labile proteins from short-lived transcripts.

PAK2 = target: T1, PAK2 (Homo sapiens, UniProt Q13177); assay: biochemical binding or enzymatic assay; details: Novartis
T1 construct: purchased DiscoveRx KINOMEscan
T1 sequence (Q13177 whole entry): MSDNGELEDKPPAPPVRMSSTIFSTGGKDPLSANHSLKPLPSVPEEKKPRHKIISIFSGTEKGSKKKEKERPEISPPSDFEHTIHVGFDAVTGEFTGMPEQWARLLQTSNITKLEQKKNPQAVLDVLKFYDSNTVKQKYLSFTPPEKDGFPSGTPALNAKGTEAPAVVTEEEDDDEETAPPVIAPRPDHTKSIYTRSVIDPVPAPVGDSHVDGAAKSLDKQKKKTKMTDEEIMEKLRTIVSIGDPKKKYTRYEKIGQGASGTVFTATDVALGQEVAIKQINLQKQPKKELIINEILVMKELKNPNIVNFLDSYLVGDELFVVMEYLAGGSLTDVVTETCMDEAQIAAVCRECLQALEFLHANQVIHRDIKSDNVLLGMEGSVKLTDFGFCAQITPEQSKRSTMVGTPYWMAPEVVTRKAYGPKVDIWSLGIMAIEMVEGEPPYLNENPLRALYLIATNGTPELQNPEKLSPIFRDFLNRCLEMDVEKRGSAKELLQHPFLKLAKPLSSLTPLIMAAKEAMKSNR
Procedure: as §1

IRAK4 = IRAK4 (Homo sapiens, UniProt Q9NWZ3); assay: biochemical binding or enzymatic assay; details: Novartis
Procedure: as §1

KIT = target: T2, KIT (Homo sapiens, UniProt P10721); assay: biochemical binding or enzymatic assay; details: Novartis
T2 construct: purchased DiscoveRx KINOMEscan
T2 sequence (P10721 26-976): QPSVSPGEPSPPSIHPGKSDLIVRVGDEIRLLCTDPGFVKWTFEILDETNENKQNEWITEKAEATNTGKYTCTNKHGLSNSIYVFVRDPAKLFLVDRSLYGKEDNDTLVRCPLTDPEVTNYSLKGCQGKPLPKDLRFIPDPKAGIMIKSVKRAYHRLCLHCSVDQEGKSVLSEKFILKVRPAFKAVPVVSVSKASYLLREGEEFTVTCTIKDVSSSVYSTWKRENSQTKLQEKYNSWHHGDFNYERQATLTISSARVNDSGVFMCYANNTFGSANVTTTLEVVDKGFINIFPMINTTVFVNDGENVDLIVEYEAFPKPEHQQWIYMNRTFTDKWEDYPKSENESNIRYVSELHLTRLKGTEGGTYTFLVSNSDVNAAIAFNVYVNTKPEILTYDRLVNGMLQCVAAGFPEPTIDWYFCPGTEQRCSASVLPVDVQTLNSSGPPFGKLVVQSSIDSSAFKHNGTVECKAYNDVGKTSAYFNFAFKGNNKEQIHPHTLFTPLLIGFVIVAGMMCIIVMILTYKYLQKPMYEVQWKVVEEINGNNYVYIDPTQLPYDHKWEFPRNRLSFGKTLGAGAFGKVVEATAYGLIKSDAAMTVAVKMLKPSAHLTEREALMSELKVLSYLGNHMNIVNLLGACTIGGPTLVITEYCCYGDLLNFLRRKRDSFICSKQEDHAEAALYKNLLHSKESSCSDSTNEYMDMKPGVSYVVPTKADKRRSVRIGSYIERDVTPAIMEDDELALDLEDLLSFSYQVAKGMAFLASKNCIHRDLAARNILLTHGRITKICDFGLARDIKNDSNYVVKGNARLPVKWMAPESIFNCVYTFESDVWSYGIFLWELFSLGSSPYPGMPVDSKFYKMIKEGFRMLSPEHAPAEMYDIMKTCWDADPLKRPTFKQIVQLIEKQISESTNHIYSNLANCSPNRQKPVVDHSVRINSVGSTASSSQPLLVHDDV
Procedure: as §1

FGFR3 = target: T3, FGFR3 (Homo sapiens, UniProt P22607); assay: biochemical binding or enzymatic assay; details: Novartis
T3 construct: purchased DiscoveRx KINOMEscan
T3 sequence (P22607 23-806): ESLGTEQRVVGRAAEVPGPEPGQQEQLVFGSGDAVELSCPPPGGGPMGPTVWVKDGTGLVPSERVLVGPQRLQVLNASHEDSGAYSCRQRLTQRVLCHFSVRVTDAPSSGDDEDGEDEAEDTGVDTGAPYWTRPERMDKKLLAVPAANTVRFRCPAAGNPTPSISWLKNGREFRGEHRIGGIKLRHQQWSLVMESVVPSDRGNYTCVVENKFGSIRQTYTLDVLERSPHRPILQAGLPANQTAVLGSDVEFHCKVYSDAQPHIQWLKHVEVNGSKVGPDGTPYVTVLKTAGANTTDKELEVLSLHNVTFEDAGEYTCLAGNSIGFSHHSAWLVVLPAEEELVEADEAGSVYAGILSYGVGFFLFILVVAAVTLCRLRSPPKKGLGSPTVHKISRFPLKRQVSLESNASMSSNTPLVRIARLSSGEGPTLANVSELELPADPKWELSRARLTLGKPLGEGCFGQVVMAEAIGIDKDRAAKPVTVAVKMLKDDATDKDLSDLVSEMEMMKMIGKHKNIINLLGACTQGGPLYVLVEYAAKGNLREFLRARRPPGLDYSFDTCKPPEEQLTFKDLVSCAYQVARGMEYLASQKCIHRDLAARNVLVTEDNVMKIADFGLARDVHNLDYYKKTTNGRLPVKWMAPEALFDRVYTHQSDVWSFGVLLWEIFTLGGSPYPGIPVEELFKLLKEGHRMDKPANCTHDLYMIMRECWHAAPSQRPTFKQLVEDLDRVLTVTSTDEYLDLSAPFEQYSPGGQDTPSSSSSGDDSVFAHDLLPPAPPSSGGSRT
Procedure: as §1

MAPKAPK2 = target: T4, MAPKAPK2 (Homo sapiens, UniProt P49137); assay: biochemical binding or enzymatic assay; details: Novartis
T4 construct: purchased DiscoveRx KINOMEscan
T4 sequence (P49137 whole entry): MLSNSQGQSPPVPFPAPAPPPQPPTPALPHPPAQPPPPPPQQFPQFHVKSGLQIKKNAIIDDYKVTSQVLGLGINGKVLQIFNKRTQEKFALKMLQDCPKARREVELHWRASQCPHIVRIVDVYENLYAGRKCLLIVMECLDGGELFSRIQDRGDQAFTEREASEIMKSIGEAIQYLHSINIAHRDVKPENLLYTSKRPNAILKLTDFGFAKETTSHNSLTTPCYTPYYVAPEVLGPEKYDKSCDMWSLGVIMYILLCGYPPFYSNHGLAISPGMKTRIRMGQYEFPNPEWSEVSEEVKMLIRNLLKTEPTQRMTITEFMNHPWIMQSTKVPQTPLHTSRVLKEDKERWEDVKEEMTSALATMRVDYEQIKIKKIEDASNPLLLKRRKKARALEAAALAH
Procedure: as §1

GSK3B = target: T5, GSK3B (Homo sapiens, UniProt P49841); assay: biochemical binding or enzymatic assay; details: Novartis
T5 construct: purchased DiscoveRx KINOMEscan
T5 sequence (P49841 whole entry): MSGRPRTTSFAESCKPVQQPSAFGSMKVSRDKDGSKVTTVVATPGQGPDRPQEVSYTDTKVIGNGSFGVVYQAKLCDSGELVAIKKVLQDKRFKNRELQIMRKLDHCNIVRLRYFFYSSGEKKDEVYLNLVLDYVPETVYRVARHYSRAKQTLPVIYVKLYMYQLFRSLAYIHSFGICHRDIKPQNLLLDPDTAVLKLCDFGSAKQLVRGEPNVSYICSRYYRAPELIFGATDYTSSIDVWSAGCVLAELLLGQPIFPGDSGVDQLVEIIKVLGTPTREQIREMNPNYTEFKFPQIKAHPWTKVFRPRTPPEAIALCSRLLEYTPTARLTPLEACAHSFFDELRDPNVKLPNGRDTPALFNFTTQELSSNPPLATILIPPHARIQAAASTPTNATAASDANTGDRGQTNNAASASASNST
Procedure: as §1

SYK = target: T6, SYK (Homo sapiens, UniProt P43405); assay: biochemical binding or enzymatic assay; details: Novartis
T6 construct: purchased DiscoveRx KINOMEscan
Procedure: as §1

MKNK2 = target: T7, MKNK2 (Homo sapiens, UniProt Q9HBH9); assay: biochemical binding or enzymatic assay; details: Novartis
T7 construct: purchased DiscoveRx KINOMEscan
T7 sequence (Q9HBH9 whole entry): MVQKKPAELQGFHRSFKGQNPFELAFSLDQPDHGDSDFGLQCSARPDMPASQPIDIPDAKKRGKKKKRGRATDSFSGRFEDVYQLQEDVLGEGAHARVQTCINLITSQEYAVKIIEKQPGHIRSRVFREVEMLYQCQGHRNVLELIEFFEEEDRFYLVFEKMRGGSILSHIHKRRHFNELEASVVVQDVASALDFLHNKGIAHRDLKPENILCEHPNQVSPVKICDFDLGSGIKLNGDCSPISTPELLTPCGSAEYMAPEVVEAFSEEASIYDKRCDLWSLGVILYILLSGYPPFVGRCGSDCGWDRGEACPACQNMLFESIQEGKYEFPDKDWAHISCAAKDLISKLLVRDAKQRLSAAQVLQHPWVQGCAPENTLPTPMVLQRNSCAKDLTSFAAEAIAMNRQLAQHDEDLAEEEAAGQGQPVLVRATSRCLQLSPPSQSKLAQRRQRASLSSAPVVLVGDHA
Procedure: as §1

[2] = test system: Ser2-phosphorylated Pol II in HeLa cells; assay: Immunoblotting of global pSer2 (Pol II CTD) in HeLa cell lysates; assay type: cell-based, human; details: 8 hr
Procedure: as §2
Figure 3. Induction of MYC mRNA production in response to sustained inhibition of CDK9 by i-CDK9 and the requirement of MYC's natural genomic structure in this process. (A) The indicated tumor cell lines were treated with i-CDK9 (0.5 μM) for 2–16 hr and the MYC mRNA levels, which were divided by those in the DMSO-treated cells and averaged from three independent replicates of DNA microarray analysis, were shown as log2 values. (B) HeLa cells were treated with the indicated concentrations of i-CDK9 for 8 hr and the various proteins in the total cell lysates were detected by immunoblotting as indicated. Quantifications of the levels of MYC protein and Ser2-phosphoryalted Pol II (pSer2) in the lysates were shown above and below the immunoblots, respectively. […] The levels of the indicated proteins were examined by immunoblotting. (G) A HeLa-based cell line containing the stably transfected, doxycycline (Dox)-inducible MYC-F-expressing plasmid driven by the CMV promoter was pretreated with (+) or without (−) Dox prior to incubation with i-CDK9 or DMSO. MYC and MYC-F expressed from the endogenous MYC locus and the transfected plasmid, respectively, were detected by immunoblotting. DOI: http://dx.doi.org/10.7554/eLife.06535.007 Figure 3—figure supplement 1. Biphasic response of MYC mRNA production throughout the course of CDK9 inhibition by i-CDK9. DOI: http://dx.doi.org/10.7554/eLife.06535.008 [drawing 2] Figure 3—Figure supplement 2. […] DOI: http://dx.doi.org/10.7554/eLife.06535.009 [drawing 3] TEXT PRINTED IN THE PICTURE: (B) i-CDK9: Fold increase in MYC protein: 1.0 (i-CDK9 (μM): 0); Fold increase in MYC protein: 1.2 (i-CDK9 (μM): 0.01); Fold increase in MYC protein: 1.7 (i-CDK9 (μM): 0.03); Fold increase in MYC protein: 3.6 (i-CDK9 (μM): 0.1); Fold increase in MYC protein: 5.2 (i-CDK9 (μM): 0.3); Fold increase in MYC protein: 5.5 (i-CDK9 (μM): 1.0) | (C) i-CDK9: Fold increase in MYC protein: 1.0 (0.3 μM i-CDK9 (h): 0); Fold increase in MYC protein: 0.9 (0.3 μM i-CDK9 (h): 1); Fold increase in MYC protein: 1.1 (0.3 μM i-CDK9 (h): 2); Fold increase in MYC protein: 1.2 (0.3 μM i-CDK9 (h): 4); Fold increase in MYC protein: 3.3 (0.3 μM i-CDK9 (h): 8)
First, the induction of MYC protein level was confirmed in HeLa cells treated with i-CDK9. […] It took 1.0 µM i-CDK9 to cause up to 85% reduction in pSer2. In a separate time-course analysis, the 8-hr incubation with i-CDK9 (0.3 μM) induced the MYC level by 3.3-fold, whereas the same condition reduced the pSer2 level by only 40% (Figure 3C). […]

JAK1(JH2domain-pseudokinase), sequence (P23458 583-855 limits assumed): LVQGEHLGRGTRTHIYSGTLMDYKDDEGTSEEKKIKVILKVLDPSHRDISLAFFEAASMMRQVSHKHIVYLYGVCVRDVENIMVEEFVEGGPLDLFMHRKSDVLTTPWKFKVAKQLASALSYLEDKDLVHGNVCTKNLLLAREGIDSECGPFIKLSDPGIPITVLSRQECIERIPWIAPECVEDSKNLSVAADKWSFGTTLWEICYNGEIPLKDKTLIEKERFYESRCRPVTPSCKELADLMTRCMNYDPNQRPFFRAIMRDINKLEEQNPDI

Structure (SMILES): N[C@H]1CC[C@H](Nc2cc(-c3cccc(NCc4cccc(F)c4)n3)c(Cl)cn2)CC1 [i-CDK9, N2′-(trans-4-aminocyclohexyl)-5′-chloro-N6-(3-fluorobenzyl)-2,4′-bipyridine-2′,6-diamine]
- IC50 [1]: > 10 µM
- inhibition of Ser2 phosphorylation (CDK9-CycT1): mostly inhibited
- cleavage of PARP (HeLa cells): induced proteolytic cleavage
- expression of MCL-1 (HeLa cells): markedly down-regulated
- IC50 (PAK2): > 10 µM
- IC50 (IRAK4): > 10 µM
- IC50 (KIT): > 10 µM
- IC50 (FGFR3): > 10 µM
- IC50 (MAPKAPK2): > 10 µM
- IC50 (GSK3B): 1.6 µM
- IC50 (SYK): > 10 µM
- IC50 (MKNK2): > 10 µM
- decrease of global pSer2 level ([2]; 0.1 μM): 23%
- reduction in global pSer2 ([2]; 0.3 μM, Figure 4-figure supplement 1): about 50%
- reduction in pSer2 ([2]; 1.0 μM): up to 85%
- pSer2 in the Pol II CTD and pThr775 in SPT5 ([2]; dose-dependent): markedly reduced
